# Experimental data as given in patent publication US8962621B2 (Shanghai Institute of Pharmaceutical Industry, priority 2010, dated 2015).
# Structures can show the parent of a compound that is named as a salt.
# Key:
# [1] = molecular target: DA Transporter (hDAT) (Homo sapiens, UniProt Q01959); experiment: Inhibition of [3H]-DA reuptake in HEK 293 cells stably expressing hDAT; details: for DA Reuptake Inhibition: 10 μmol/L final concentration (b487 prints 0.1 mmol/L), HEK 293 hDAT cells, [3H]-DA
# DA Transporter (hDAT), sequence (Q01959 whole entry): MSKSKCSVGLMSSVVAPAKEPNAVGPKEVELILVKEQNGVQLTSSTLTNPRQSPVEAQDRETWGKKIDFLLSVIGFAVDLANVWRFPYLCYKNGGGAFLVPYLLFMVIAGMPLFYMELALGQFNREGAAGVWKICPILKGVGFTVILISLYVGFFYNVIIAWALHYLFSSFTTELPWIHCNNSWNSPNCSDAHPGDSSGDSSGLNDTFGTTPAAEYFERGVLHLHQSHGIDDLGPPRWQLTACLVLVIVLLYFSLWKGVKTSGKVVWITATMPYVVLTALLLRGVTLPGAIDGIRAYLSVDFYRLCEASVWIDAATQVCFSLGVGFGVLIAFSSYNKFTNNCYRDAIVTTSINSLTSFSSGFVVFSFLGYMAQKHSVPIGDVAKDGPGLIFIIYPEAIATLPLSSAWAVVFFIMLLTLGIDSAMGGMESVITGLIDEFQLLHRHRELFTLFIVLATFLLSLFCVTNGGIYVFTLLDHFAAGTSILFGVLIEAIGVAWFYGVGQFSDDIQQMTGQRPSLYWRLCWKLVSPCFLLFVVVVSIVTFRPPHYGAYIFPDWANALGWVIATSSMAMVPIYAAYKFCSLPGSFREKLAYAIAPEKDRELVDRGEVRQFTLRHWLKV
# [2] = molecular target: 5-HT Transporter (hSERT) (Homo sapiens, UniProt P31645); experiment: Inhibition of [3H]-5-HT reuptake in HEK 293 cells stably expressing hSERT; details: for 5-HT Reuptake Inhibition: 10 μmol/L final concentration (b487 prints 0.1 mmol/L), HEK 293 hSERT cells, [3H]-5-HT;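 on all read-outs here: compound preincubated 10 min at 30 °C, then 10 min uptake, filter-bound radioactivity counted by scintillation, inhibition relative to total (blank) minus non-specific (positive control) uptake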
# 5-HT Transporter (hSERT), sequence (P31645 whole entry): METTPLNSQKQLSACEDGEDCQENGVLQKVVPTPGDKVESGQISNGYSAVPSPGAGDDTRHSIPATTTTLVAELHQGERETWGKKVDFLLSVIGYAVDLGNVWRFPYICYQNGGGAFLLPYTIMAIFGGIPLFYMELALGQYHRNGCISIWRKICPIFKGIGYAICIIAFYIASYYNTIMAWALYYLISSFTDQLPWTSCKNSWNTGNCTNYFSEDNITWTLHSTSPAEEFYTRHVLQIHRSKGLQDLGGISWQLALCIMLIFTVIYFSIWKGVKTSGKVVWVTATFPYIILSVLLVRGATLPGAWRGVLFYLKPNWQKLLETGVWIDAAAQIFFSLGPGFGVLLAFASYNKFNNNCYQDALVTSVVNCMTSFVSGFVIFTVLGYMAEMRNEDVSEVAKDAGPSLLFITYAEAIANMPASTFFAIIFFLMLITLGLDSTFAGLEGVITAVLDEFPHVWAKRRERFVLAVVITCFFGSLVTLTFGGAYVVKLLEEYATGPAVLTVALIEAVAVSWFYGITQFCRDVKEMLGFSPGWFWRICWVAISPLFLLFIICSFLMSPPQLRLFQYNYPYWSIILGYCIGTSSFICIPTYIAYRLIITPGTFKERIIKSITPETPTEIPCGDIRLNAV
# [3] = molecular target: NA Transporter (hNAT) (Homo sapiens, UniProt P23975); experiment: Inhibition of [3H]-NA reuptake in HEK 293 cells stably expressing hNAT; details: 10 μmol/L final concentration (b487 prints 0.1 mmol/L); HEK 293 hNAT cells, [3H]-NA
# NA Transporter (hNAT), sequence (P23975 whole entry): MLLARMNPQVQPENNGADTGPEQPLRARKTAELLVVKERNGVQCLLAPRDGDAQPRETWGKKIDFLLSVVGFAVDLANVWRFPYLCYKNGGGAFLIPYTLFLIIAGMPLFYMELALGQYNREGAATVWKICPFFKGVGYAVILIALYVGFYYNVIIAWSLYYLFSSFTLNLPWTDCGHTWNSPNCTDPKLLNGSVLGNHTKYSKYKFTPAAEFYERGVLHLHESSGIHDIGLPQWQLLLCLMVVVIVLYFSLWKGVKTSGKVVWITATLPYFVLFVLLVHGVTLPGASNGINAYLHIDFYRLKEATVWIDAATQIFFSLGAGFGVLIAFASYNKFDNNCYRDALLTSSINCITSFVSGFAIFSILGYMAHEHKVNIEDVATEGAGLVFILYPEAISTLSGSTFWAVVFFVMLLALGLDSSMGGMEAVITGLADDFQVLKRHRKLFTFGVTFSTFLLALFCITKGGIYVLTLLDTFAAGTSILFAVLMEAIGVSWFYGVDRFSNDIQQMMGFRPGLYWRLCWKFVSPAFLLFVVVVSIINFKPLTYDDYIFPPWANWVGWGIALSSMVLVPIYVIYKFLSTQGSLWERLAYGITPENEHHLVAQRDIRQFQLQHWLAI
# [4] = test system: male Kunming mice; experiment: Mice forced swimming test; format: in vivo
# Description: Through intragastric administration, 10 mL·kg^−1 of each sample (physiological saline for the blank control group) is administrated. The mice are pre-screened for swimming one day before the actual test. The mouse is placed into water (25° C., 10 cm deep) in a glass tank (height 20 cm, diameter 14 cm) and forced to swim for 6 min. Those who stop swimming at around 70-160 s are chosen for the actual test which starts 24 h later. After 1 h of the administration, the forced swimming test is performed by placing the animal into the above-mentioned environment to swim for 6 min. The accumulative immobility time for the last 4 min is recorded. Data is statistically analyzed with t-test.
# [5] = test system: male ICR mice; experiment: Mice tail suspension test; format: in vivo
# Description: Through intragastric administration, 10 mL·kg^−1 of each sample (physiological saline for the blank control group) is administrated. After 1 h of the treatment, the mouse is held with a medical tape at a position around 2 cm from the tip of its tail and hung upside-down in the suspension cage with its head 5 cm away from the bottom of the cage. The observation starts right after the mouse is suspended for 2 min and continues for 4 min. The time during which the mouse is immobile (no struggling or only tiny movements of its body/limbs) in this 4 min is accumulated (IT, immobility time). The percentage of the improvement is calculated according to the equation: Improvement %=[IT (blank control group)−IT (compound treatment group)]/IT (blank control group)×100%
smiles,measurement,setting,value
CCCN(C)C1(c2csc3ccccc23)CCCNC1 (stereo not shown) (as salt: hydrochloride),melting point,,193.2 to 195 °C
CCCN(C)C1(c2ccc3c(c2)OCO3)CCCNC1 (stereo not shown) (as salt: hydrochloride),melting point,,189.3 to 192.4 °C
CCCN(C)C1(c2ccc(OC)c(OC)c2)CCCNC1 (stereo not shown) (as salt: hydrochloride),melting point,,195.2 to 197.8 °C
"CN(C)CCC(c1ccc(Cl)c(Cl)c1)N1CCNCC1 (stereo not shown) (as salt: hydrochloride) [VI-3, N,N-dimethyl-3-(3,4-dichlorophenyl)-3-(piperazin-1-yl)-propylamine]",melting point,,257.3 to 258.9 °C
"CN(C)CCCC1(c2ccc(Cl)c(Cl)c2)CCCNC1 (stereo not shown) (as salt: hydrochloride) [VI-7, N,N-dimethyl-3-(3,4-dichlorophenyl)-3-piperidyl-propylamine]",melting point,,169.1 to 171.8 °C
"CN(C)CCC(c1csc2ccccc12)N1CCCC1 (stereo not shown) (as salt: hydrochloride) [VI-13, N,N-dimethyl-3-(benzothiophen-3-yl)-3-(pyrrolidin-1-yl)-propylamine]",melting point,,259.7 to 262.2 °C
"CN(CCC(c1csc2ccccc12)N1CCCC1)Cc1ccccc1 (stereo not shown) (as salt: hydrochloride) [VI-14, N-methyl-N-benzyl-3-(benzothiophen-3-yl)-3-(pyrrolidin-1-yl)-propylamine]",melting point,,297 to 299.5 °C
"CNCCC(c1csc2ccccc12)N1CCCC1 (stereo not shown) (as salt: hydrochloride) [VI-15, N-methyl-3-(benzothiophen-3-yl)-3-(pyrrolidin-1-yl)-propylamine]",melting point,,189.3 to 192 °C
"CN(CCCC1(c2csc3ccccc23)CCCNC1)Cc1ccccc1 (stereo not shown) (as salt: hydrochloride) [VI-17, N-methyl-N-benzyl-3-(benzothiophen-3-yl)-3-piperidyl-propylamine]",melting point,,312 to 313.5 °C
"CN(C)CCC(c1cc2ccccc2s1)N1CCCC1 (stereo not shown) (as salt: hydrochloride) [VI-19, N,N-dimethyl-3-(benzothiophen-2-yl)-3-(pyrrolidin-1-yl)-propylamine]",melting point,,255 to 257.2 °C
"CN(CCC(c1cc2ccccc2s1)N1CCCC1)Cc1ccccc1 (stereo not shown) (as salt: hydrochloride) [VI-20, N-methyl-N-benzyl-3-(benzothiophen-2-yl)-3-(pyrrolidin-1-yl)-propylamine]",melting point,,287.5 to 289.2 °C
"CNCCC(c1cc2ccccc2s1)N1CCCC1 (stereo not shown) (as salt: hydrochloride) [VI-21, N-methyl-3-(benzothiophen-2-yl)-3-(pyrrolidin-1-yl)-propylamine]",melting point,,175 to 176.8 °C
"CN(CCCC1(c2cc3ccccc3s2)CCCNC1)Cc1ccccc1 (stereo not shown) (as salt: hydrochloride) [VI-23, N-methyl-N-benzyl-3-(benzothiophen-2-yl)-3-piperidyl-propylamine]",melting point,,298.5 to 300 °C
"CCCN(C)C1(c2cc3ccccc3s2)CCCNC1 (stereo not shown) (as salt: hydrochloride) [VI-24, N-methyl-3-(benzothiophen-2-yl)-3-piperidyl-propylamine]",melting point,,185.3 to 187 °C
"COc1ccc2cc(C(CCN(C)C)N3CCCC3)ccc2c1Cl (stereo not shown) (as salt: hydrochloride) [VI-36, N,N-dimethyl-3-(5-chloro-6-methoxynaphthalen-2-yl)-3-(pyrrolidin-1-yl)-propylamine]",melting point,,215.2 to 216.9 °C
"COc1ccc(C(CCN(C)C)N2CCCC2)cc1 (stereo not shown) (as salt: hydrochloride) [VI-37, N,N-dimethyl-3-(4-methoxyphenyl)-3-(pyrrolidin-1-yl)-propylamine]",melting point,,175.2 to 178.4 °C
"CN(C)CCCC(c1ccc(Cl)c(Cl)c1)N1CCNCC1 (stereo not shown) (as salt: hydrochloride) [VI-45, N,N-dimethyl-4-(3,4-dichlorophenyl)-4-(piperazin-1-yl)-butylamine]",melting point,,245.6 to 248.2 °C
"CN(C)CCCC(c1csc2ccccc12)N1CCNCC1 (stereo not shown) (as salt: hydrochloride) [VI-47, N,N-dimethyl-4-(benzothiophen-3-yl)-4-(piperazin-1-yl)-butylamine]",melting point,,249.6 to 252.2 °C
"CN(CCCC1(c2ccc3c(c2)OCO3)CCCNC1)Cc1ccccc1 (stereo not shown) (as salt: hydrochloride) [VI-53, N-methyl-N-benzyl-3-(1,2-methylenedioxybenzen-4-yl)-3-piperidyl-propylamine]",melting point,,285.6 to 288.9 °C
"COc1ccc(C2(CCCN(C)Cc3ccccc3)CCCNC2)cc1OC (stereo not shown) (as salt: hydrochloride) [VI-59, N-methyl-N-benzyl-3-(3,4-dimethoxyphenyl)-3-piperidyl-propylamine]",melting point,,256.6 to 258.9 °C
"Clc1ccc([C@]23CNC[C@H]2C3)cc1Cl [DOV-21947, reference compound]",inhibition at 10 µM,"[1]; HEK293, read-out: DA Reuptake Inhibition",100%
same,inhibition at 10 µM,"[2]; HEK293, read-out: 5-HT Reuptake Inhibition",100%
"CN(C)CCC(c1ccc(Cl)c(Cl)c1)N1CCOCC1 (stereo not shown) [VI-4, N,N-dimethyl-3-(3,4-dichlorophenyl)-3-morpholinyl-propylamine]",NA Reuptake Inhibition,[3],93.6%
same,DA Reuptake Inhibition,[1],89.9%
same,effect in the forced swimming test (in words),[4]; 20 mg/kg,significant reduction in the immobility time
same,"IT (sec), immobility time","[4]; 20.0 mg/kg single intragastric administration, 1 h before test, last 4 min of 6 min, n=12",52.8 ± 32.0 s
same,inhibition effect towards the reuptake of 5-HT (in words),[2],relatively strong inhibition effect
same,5-HT Reuptake Inhibition,[2],101.9%
same,"IT (sec), immobility time","[5]; 20.0 mg/kg single intragastric administration, 1 h before test, 4 min observation, n=12",38.65 ± 16.32 s
same,Improvement (%),"[5]; 20.0 mg/kg single oral administration, versus blank control IT",61.04%
same,effect on immobility time in the tail suspension test (in words),"[5]; 20 mg/kg, efficacy similar to Venlafaxine",significant reduction in the immobility time
"CN(C)CCC(c1cc2ccccc2s1)N1CCOCC1 (stereo not shown) [VI-25, N,N-dimethyl-3-(benzothiophen-2-yl)-3-morpholinyl-propylamine]",NA Reuptake Inhibition,[3],96.8%
same,DA Reuptake Inhibition,[1],39.2%
same,5-HT Reuptake Inhibition,[2],91.5%
"COc1ccc2cc(C(CCN(C)C)N3CCOCC3)ccc2c1Cl (stereo not shown) [VI-34, N,N-dimethyl-3-(5-chloro-6-methoxynaphthalen-2-yl)-3-morpholinyl-propylamine]",NA Reuptake Inhibition,[3],49.5%
same,DA Reuptake Inhibition,[1],2.48%
same,5-HT Reuptake Inhibition,[2],47.3%
"COc1ccc(C(CCN(C)C)N2CCOCC2)cc1 (stereo not shown) [VI-38, N,N-dimethyl-3-(4-methoxyphenyl)-3-morpholinyl-propylamine]",NA Reuptake Inhibition,[3],29.3%
same,DA Reuptake Inhibition,[1],23.0%
same,5-HT Reuptake Inhibition,[2],25.9%
"CN(C)CCCC(c1ccc(Cl)c(Cl)c1)N1CCOCC1 (stereo not shown) [VI-44, N,N-dimethyl-4-(3,4-dichlorophenyl)-4-morpholinyl-butylamine]",NA Reuptake Inhibition,[3],54.6%
same,DA Reuptake Inhibition,[1],67.0%
same,5-HT Reuptake Inhibition,[2],45.8%
"CN(C)CCC(c1ccc(F)cc1F)N1CCOCC1 (stereo not shown) [VI-48, N,N-dimethyl-3-(2,4-difluorophenyl)-3-morpholinyl-propylamine]",NA Reuptake Inhibition,[3],58.0%
same,DA Reuptake Inhibition,[1],45.6%
same,5-HT Reuptake Inhibition,[2],65.0%
"COc1ccc(C(CCN(C)Cc2ccccc2)N2CCOCC2)cc1OC (stereo not shown) [VI-56, N-methyl-N-benzyl-3-(3,4-dimethoxyphenyl)-3-morpholinyl-propylamine]",NA Reuptake Inhibition,[3],68.7%
same,DA Reuptake Inhibition,[1],59.2%
same,5-HT Reuptake Inhibition,[2],78.0%
"CN(C)CCC(c1cccs1)N1CCOCC1 (stereo not shown) [VI-61, N,N-dimethyl-3-(thien-2-yl)-3-morpholinyl-propylamine]",NA Reuptake Inhibition,[3],75.0%
same,DA Reuptake Inhibition,[1],65.6%
same,5-HT Reuptake Inhibition,[2],78.9%
